Measured values from the NIST ThermoML archive (doi:10.1021/acs.jced.9b00311).
Numbers after ± are expanded uncertainties.

Experiments:
[1] = Liquid; for mass density: Vibrating tube method; for speed of sound: Frequency=3 MHz, Pulse-echo method
[2] = xn = mol fraction of the nth substance listed; details: Liquid, Vibrating tube method, x1 = 1

SMILES | mass density ([1]; 303.15 K, 10000 kPa) [kg/m3] | mass density ([1]; 303.15 K, 20000 kPa) [kg/m3] | mass density ([1]; 303.15 K, 30000 kPa) [kg/m3] | mass density ([1]; 303.15 K, 40000 kPa) [kg/m3] | mass density ([1]; 303.15 K, 50000 kPa) [kg/m3] | mass density ([1]; 303.15 K, 60000 kPa) [kg/m3] | mass density ([1]; 303.15 K, 70000 kPa) [kg/m3] | mass density ([1]; 313.15 K, 10000 kPa) [kg/m3] | mass density ([1]; 313.15 K, 20000 kPa) [kg/m3] | mass density ([1]; 313.15 K, 30000 kPa) [kg/m3] | mass density ([1]; 313.15 K, 40000 kPa) [kg/m3] | mass density ([1]; 313.15 K, 50000 kPa) [kg/m3] | mass density ([1]; 313.15 K, 60000 kPa) [kg/m3] | mass density ([1]; 313.15 K, 70000 kPa) [kg/m3] | other results
O=C=O [carbon dioxide] | 770.5 ± 1.8 | 890.1 ± 0.5 | 949.2 ± 0.5 | 989.1 ± 0.5 | 1020 ± 0.5 | 1045.8 ± 0.5 | 1068 ± 0.5 | 628.9 ± 1.9 | 839.3 ± 1.1 | 909.2 ± 0.6 | 955.5 ± 0.6 | 990.5 ± 0.5 | 1019 ± 0.5 | 1043.5 ± 0.5 | 
O=C=O [carbon dioxide] + CCCCCCCCCCCC |  |  |  |  |  |  |  |  |  |  |  |  |  |  | mass density ([2]; 303.15 K, 10000 kPa): 770.5 ± 1.8 kg/m3; mass density ([2]; 303.15 K, 20000 kPa): 890.1 ± 0.5 kg/m3; mass density ([2]; 303.15 K, 30000 kPa): 949.2 ± 0.5 kg/m3; mass density ([2]; 303.15 K, 40000 kPa): 989.1 ± 0.5 kg/m3; mass density ([2]; 303.15 K, 50000 kPa): 1020 ± 0.5 kg/m3; mass density ([2]; 303.15 K, 60000 kPa): 1045.8 ± 0.5 kg/m3; mass density ([2]; 303.15 K, 70000 kPa): 1068 ± 0.5 kg/m3; mass density ([2]; 313.15 K, 10000 kPa): 628.9 ± 1.9 kg/m3; mass density ([2]; 313.15 K, 20000 kPa): 839.3 ± 1.1 kg/m3; mass density ([2]; 313.15 K, 30000 kPa): 909.2 ± 0.6 kg/m3; mass density ([2]; 313.15 K, 40000 kPa): 955.5 ± 0.6 kg/m3; mass density ([2]; 313.15 K, 50000 kPa): 990.5 ± 0.5 kg/m3; mass density ([2]; 313.15 K, 60000 kPa): 1019 ± 0.5 kg/m3; mass density ([2]; 313.15 K, 70000 kPa): 1043.5 ± 0.5 kg/m3
CCCCCCCCCCCC [dodecane] | 748.5 ± 0.8 | 755.1 ± 0.9 | 761.3 ± 1 | 766.9 ± 1 | 772 ± 1 | 776.8 ± 1.1 | 781.4 ± 1.1 | 741.6 ± 0.8 | 748.5 ± 0.9 | 754.8 ± 0.9 | 760.8 ± 1 | 766.3 ± 1.1 | 771.5 ± 1.1 | 776.4 ± 1.1 | speed of sound ([1]; 303.15 K, 10000 kPa): 1318.5 ± 1.8 m/s; speed of sound ([1]; 303.15 K, 20000 kPa): 1372.4 ± 1.8 m/s; speed of sound ([1]; 303.15 K, 30000 kPa): 1421.4 ± 1.8 m/s; speed of sound ([1]; 303.15 K, 40000 kPa): 1468.5 ± 1.9 m/s; speed of sound ([1]; 303.15 K, 50000 kPa): 1512.3 ± 1.9 m/s; speed of sound ([1]; 303.15 K, 60000 kPa): 1553.7 ± 1.9 m/s; speed of sound ([1]; 303.15 K, 70000 kPa): 1593.3 ± 2 m/s; speed of sound ([1]; 313.15 K, 10000 kPa): 1281.7 ± 1.8 m/s; speed of sound ([1]; 313.15 K, 20000 kPa): 1337.9 ± 1.8 m/s; speed of sound ([1]; 313.15 K, 30000 kPa): 1389.6 ± 1.8 m/s; speed of sound ([1]; 313.15 K, 40000 kPa): 1436.8 ± 1.8 m/s; speed of sound ([1]; 313.15 K, 50000 kPa): 1481.5 ± 1.9 m/s; speed of sound ([1]; 313.15 K, 60000 kPa): 1524.2 ± 1.9 m/s; speed of sound ([1]; 313.15 K, 70000 kPa): 1564.6 ± 1.9 m/s
